{"source": "patent US20140283166A1", "about": "“CREATION AND TRANSMISSION OF MEGALOCI” (Monsanto Technology, LLC, priority 2013, published 2014)", "origin": "cited, not measured here", "test_system": "Arabidopsis", "note": "Read-outs that look alike come from different tables or passages of the source.", "data": [{"smiles": "COc1cccc(C(N)=O)c1", "note": "[3-methoxybenzamide]", "values": [{"measurement": "effect on genetic distance around centromeres", "setting": "2 mM", "value": "increase the genetic distance around centromeres"}]}, {"smiles": "Nc1ncn([C@H]2C[C@H](O)[C@@H](CO)O2)c(=O)n1", "note": "[5-aza-2′-deoxycytidine]", "values": [{"measurement": "effect on genetic distance around centromeres", "setting": "25 or 100 mg/L", "value": "increase the genetic distance around centromeres"}]}, {"smiles": "CCN(N=O)C(N)=O", "note": "[N-nitroso-N-ethylurea]", "values": [{"measurement": "effect on genetic distance around centromeres", "setting": "100 μM", "value": "increase the genetic distance around centromeres"}]}, {"smiles": "Cc1c(N)nc([C@H](CC(N)=O)NC[C@H](N)C(N)=O)nc1C(=O)N[C@H](C(=O)N[C@H](C)[C@@H](O)[C@H](C)C(=O)N[C@H](C(=O)NCCC1=N[C@@H](c2nc(C(=O)NCCCCN=C(N)N)cs2)CS1)[C@@H](C)O)[C@@H](O[C@@H]1O[C@@H](CO)[C@@H](O)[C@H](O)[C@@H]1O[C@H]1O[C@H](CO)[C@@H](O)[C@H](OC(N)=O)[C@@H]1O)c1cnc[nH]1", "note": "[Zeocin]", "values": [{"measurement": "effect on genetic distance around centromeres", "setting": "1 μg/ml", "value": "increase the genetic distance around centromeres"}]}, {"smiles": "N.N.[Cl][Pt][Cl]", "note": "[cis-diamminedichloroplatinum]", "values": [{"measurement": "effect on genetic distance around centromeres", "setting": "20 μg/ml", "value": "increase the genetic distance around centromeres"}]}, {"smiles": "CCOS(C)(=O)=O", "note": "[methanesulfonic acid ethyl ester]", "values": [{"measurement": "effect on genetic distance around centromeres", "setting": "0.05%", "value": "increase the genetic distance around centromeres"}]}, {"smiles": "COS(C)(=O)=O", "note": "[methanesulfonic acid methyl ester]", "values": [{"measurement": "effect on genetic distance around centromeres", "setting": "75 parts per million", "value": "increase the genetic distance around centromeres"}]}, {"smiles": "CO[C@@]12[C@H](COC(N)=O)C3=C(C(=O)C(C)=C(N)C3=O)N1C[C@@H]1N[C@@H]12", "note": "[mitomycin C]", "values": [{"measurement": "effect on genetic distance around centromeres", "setting": "10 mg/L", "value": "increase the genetic distance around centromeres"}]}, {"smiles": "CCCC(=O)O", "note": "[n-butyric acid]", "values": [{"measurement": "effect on genetic distance around centromeres", "setting": "20 μM", "value": "increase the genetic distance around centromeres"}]}, {"smiles": "CC(/C=C/C(=O)NO)=C\\[C@@H](C)C(=O)c1ccc(N(C)C)cc1", "note": "[trichostatin A]", "values": [{"measurement": "effect on genetic distance around centromeres", "setting": "10 μM", "value": "increase the genetic distance around centromeres"}]}]}
